Measured values published in patent US20220033407A1, “N-(pyridin-2-ylsulfonyl)cyclopropanecarboxamide Derivatives and their Use in the Treatment of Disease” (NOVARTIS AG, priority 2018, published 2022).

Target: T1, delF508-CFTR-HRP (Homo sapiens, UniProt P13569, DEL508-508)
T1 construct: expressed in transfected cells
Assay: Measurement of delF508-CFTR-HRP surface expression in CFBE41o- cells (HRP luminescence);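 for DelF508-CFTR-HRP Amax %: percent efficacy relative to a reference CFTR corrector compound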
Format: cell-based
Details: for Emax: CFBE41o-, read-out: DelF508-CFTR-HRP Amax %; for EC50: mean of at least two replicates
Description: Measurement of delF508-CFTR-HRP Surface Expression in CFBE41o-Cells
This assay quantifies the cell surface expressions of the mutant CFTR channel using an extracellular HRP tag.
A cellular assay was developed to measure surface expression of horseradish peroxidase (HRP) tagged delF508-CFTR in the human bronchial epithelial immortalized CFBE41o-cell line (Phuan, P. W., et al, (2014) Molecular Pharmacology 86:42-51). Specifically, the HRP sequence was inserted into the fourth extracellular loop of delF508-CFTR and stably expressed in CFBE41o-cells. Cells were seeded in 384 well plate at a density of 5000 cells/well and incubated at 37° C. for 12 to 24 hours in medium (Gibco MEM #11095, 10% FBS, 10 mM HEPES, […], 200 μg/mL G418, 3 μg/mL Puromycin). The delF508-CFTR-HRP expression was induced with 500 ng/mL doxycycline (Sigma D-9891, dissolved in H2O and sterile filtered) in medium and the cells were incubated at 37° C. for 48 h. Old medium was removed and fresh medium was added containing 500 ng/mL doxycycline and unknown test compound at required test concentration in DMSO, not exceeding 0.5% final DMSO concentration. The highest concentration tested was 10 μM with a 10-point concentration response curve using a 3-fold dilution. After addition of compounds, the cells were incubated for 24 h at 37° C. On the final day, cells were washed four times in PBS containing 1 mM MgCl2 and 0.1 mM CaCl2. HRP-Substrate (SuperSignal ELISA Pico, Fisher #37069) 20 μl/well was added and the luminescence signal was determined (Viewlux, Perkin Elmer). Light was emitted upon addition of exogenous HRP-Substrate only when delF508-CFTR-HRP reached the cell surface and the HRP tag was accessible to the HRP-Substrate (note: HRP-Substrate cannot cross the lipid bilayer to reach delF508-CFTR-HRP misfolded within the cell).
The median activity for the lowest concentration of the compounds on each assay plate was calculated and this value was used to normalize the signal for each well on the respective plate. Three replicates at each concentrations for every compound were run to determine one EC50. The median value was determined and used to calculate compound activities as described below. Effective half maximal values (EC50) were calculated for each compound by performing logistic regression on measured dose-response data points using the equation: […]
where “Y” is the observed activity, “Bottom” is the lowest observed value, “Top” is the highest observed value, and the “Hill coefficient” gives the largest absolute value of the slope. The curve fitting is carried out by a curve fitting program implemented at GNF using Matlab (Mathworks). The dose response curves also were used to calculate Fold Change (FC) using the equation: […]
Compound efficacy relative to the reference compound 3-(6-(1-(2,2-difluorobenzo[d][1,3]dioxol-5-yl)cyclopropane-1-carboxamido)-3-methylpyridin-2-yl)benzoic acid was determined using the following formula: […]

T1 sequence (P13569 with tags, fused parts or gaps DEL508-508): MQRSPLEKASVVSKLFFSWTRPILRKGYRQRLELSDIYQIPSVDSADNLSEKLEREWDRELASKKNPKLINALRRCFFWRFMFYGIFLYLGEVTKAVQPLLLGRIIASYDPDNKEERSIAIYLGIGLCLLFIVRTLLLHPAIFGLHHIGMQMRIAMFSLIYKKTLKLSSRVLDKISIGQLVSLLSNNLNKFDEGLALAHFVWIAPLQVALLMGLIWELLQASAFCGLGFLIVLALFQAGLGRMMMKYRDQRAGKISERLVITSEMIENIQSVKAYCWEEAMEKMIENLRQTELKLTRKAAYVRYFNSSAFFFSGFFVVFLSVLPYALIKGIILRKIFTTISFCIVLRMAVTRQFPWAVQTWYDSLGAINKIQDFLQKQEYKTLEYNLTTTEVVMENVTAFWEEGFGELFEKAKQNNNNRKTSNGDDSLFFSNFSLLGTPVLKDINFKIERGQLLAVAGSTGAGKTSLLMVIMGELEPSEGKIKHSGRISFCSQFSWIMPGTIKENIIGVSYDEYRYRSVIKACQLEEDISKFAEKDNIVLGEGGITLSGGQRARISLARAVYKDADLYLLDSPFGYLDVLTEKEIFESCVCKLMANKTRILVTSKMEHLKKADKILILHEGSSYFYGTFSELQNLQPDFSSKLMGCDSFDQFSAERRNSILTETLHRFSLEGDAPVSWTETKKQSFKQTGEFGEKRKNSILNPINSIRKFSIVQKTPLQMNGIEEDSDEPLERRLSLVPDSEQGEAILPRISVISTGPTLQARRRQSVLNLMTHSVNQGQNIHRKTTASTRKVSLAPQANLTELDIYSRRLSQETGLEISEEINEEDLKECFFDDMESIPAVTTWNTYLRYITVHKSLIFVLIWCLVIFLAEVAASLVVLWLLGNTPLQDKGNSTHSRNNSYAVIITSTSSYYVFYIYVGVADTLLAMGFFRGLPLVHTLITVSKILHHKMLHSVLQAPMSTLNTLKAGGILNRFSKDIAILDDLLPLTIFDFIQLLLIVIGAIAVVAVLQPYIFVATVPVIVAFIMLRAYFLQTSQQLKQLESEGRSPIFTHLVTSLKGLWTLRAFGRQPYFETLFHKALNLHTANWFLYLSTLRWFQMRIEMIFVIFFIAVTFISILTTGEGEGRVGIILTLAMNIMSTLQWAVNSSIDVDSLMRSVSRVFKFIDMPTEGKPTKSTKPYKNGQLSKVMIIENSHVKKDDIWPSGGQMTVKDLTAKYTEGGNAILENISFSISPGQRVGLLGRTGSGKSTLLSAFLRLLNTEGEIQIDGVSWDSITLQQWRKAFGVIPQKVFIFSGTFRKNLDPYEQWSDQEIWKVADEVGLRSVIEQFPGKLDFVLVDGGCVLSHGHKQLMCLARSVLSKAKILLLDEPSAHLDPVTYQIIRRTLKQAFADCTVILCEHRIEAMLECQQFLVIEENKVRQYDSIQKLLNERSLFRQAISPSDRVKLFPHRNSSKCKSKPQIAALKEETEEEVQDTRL

SMILES | Emax [%] | EC50 [nM] | DelF508-CFTR-HRP Amax % [%]
CC1(C)CN(c2ccc(Cl)cc2OC2(C(=O)NS(=O)(=O)c3cccc(N4CC[C@H](O)C4)n3)CC2)C1 [Example 9-21, (S)-1-(5-Chloro-2-(3,3-dimethylazetidin-1-yl)phenoxy)-N-((6-(3-hydroxypyrrolidin-1-yl)pyridin-2-yl)sulfonyl)cyclopropanecarboxamide] | 720 | 2280 | –
CC1(C)CCN(c2ccc(C(F)(F)F)cc2OC2(C(=O)NS(=O)(=O)c3cccc(N4CC[C@H](O)C4)n3)CC2)CC1 [Example 9-26, (S)-1-(2-(4,4-Dimethylpiperidin-1-yl)-5-(trifluoromethyl)phenoxy)-N-((6-(3-hydroxypyrrolidin-1-yl)pyridin-2-yl)sulfonyl)cyclopropanecarboxamide] | 329 | 1840 | –
Cc1ccc(OC2CCCCC2)c(OC2(C(=O)NS(=O)(=O)c3cccc(N4CC[C@H](O)C4)n3)CC2)c1 [Example 6-3, (S)-1-(2-(Cyclohexyloxy)-5-methylphenoxy)-N-((6-(3-hydroxypyrrolidin-1-yl)pyridin-2-yl)sulfonyl)cyclopropane-1-carboxamide] | 507 | 2780 | –
CC(C)COc1cccc(-c2ccc(Cl)cc2OC2(C(=O)NS(=O)(=O)c3cccc(N4CCC(C)(C#N)CC4)n3)CC2)c1 [Example 5-3, 1-((4-Chloro-3′-isobutoxy-[1,1′-biphenyl]-2-yl)oxy)-N-((6-(4-cyano-4-methylpiperidin-1-yl)pyridin-2-yl)sulfonyl)cyclopropane-1-carboxamide] | 286 | 750 | –
Cc1ccc(C)c(OC2(C(=O)NS(=O)(=O)c3cccc(NC[C@@H](C)O)n3)CCCC2)c1 [Example 4-4, (R)-1-(2,5-dimethylphenoxy)-N-((6-((2-hydroxypropyl)amino)pyridin-2-yl)sulfonyl)cyclopentane-1-carboxamide] | 84 | 4770 | –

Continued by falling EC50, values first:

Emax [%] | EC50 [nM] | DelF508-CFTR-HRP Amax % [%] | SMILES
– | 1670 | 371.9 | CC1(O)CCN(c2cccc(S(=O)(=O)NC(=O)C3(Oc4cc(Cl)ccc4C4CC5(CCC5)C4)CCCC3)n2)C1 (single isomer, unassigned) [Example 7-18-2, 1-(5-Chloro-2-(spiro[3.3]heptan-2-yl)phenoxy)-N-((6-(3-hydroxy-3-methylpyrrolidin-1-yl)pyridin-2-yl)sulfonyl)cyclopentane-1-carboxamide]
– | 1000 | 535.5 | CC1(O)CCCN(c2cccc(S(=O)(=O)NC(=O)C3(Oc4cc(Cl)ccc4C4CC5(CCC5)C4)CC3)n2)C1 (single isomer, unassigned) [Example 7-8-1, 1-(5-chloro-2-(spiro[3.3]heptan-2-yl)phenoxy)-N-((6-(3-hydroxy-3-methylpiperidin-1-yl)pyridin-2-yl)sulfonyl)cyclopropanecarboxamide]
268 | 460 | – | CC1(C)CCN(c2ccc(Cl)cc2OC2(C(=O)NS(=O)(=O)c3cccc(N4CCC(O)(C(F)(F)F)CC4)n3)CC2)CC1 [Example 10-9, 1-(5-chloro-2-(4,4-dimethylpiperidin-1-yl)phenoxy)-N-((6-(4-hydroxy-4-(trifluoromethyl)piperidin-1-yl)pyridin-2-yl)sulfonyl)cyclopropanecarboxamide]
519 | 370 | – | Cc1ccc(OC2CCC(C(C)(C)C)CC2)c(OC2(C(=O)NS(=O)(=O)c3cccc(N4CCC(C)(O)CC4)n3)CC2)c1 (centres unmarked) [Example 6-5, 1-(2-((4-(tert-butyl)cyclohexyl)oxy)-5-methylphenoxy)-N-((6-(4-hydroxy-4-methylpiperidin-1-yl)pyridin-2-yl)sulfonyl)cyclopropanecarboxamide]
293 | 360 | – | COC(=O)C(C)(C)CN1CCN(c2cccc(S(=O)(=O)NC(=O)C3(Oc4cc(C)ccc4C4CCCCC4)CC3)n2)CC1 [Example 2-38, Methyl 3-(4-(6-(N-(1-(2-cyclohexyl-5-methylphenoxy)cyclopropanecarbonyl)sulfamoyl)pyridin-2-yl)piperazin-1-yl)-2,2-dimethylpropanoate]
